The subject of experiment [1] is Vibrio cholerae neuraminidase. Conditions: Meindl and Tuppy 1969; cited from earlier work.
Experiment [2] deals with influenza B/Victoria/102/85. The experiment is described as follows: Inhibition of influenza virus replication in vitro, plaque reduction in MDCK cells (Flu B). The format is cell-based. The note with it: 72 h, influenza B/Victoria/102/85, MDCK cells, 3 days, read-out: I50 Plaque Assay (μg/ml) Flu B.
Experiment [3] concerns influenza A/Singapore/1/57 (H2N2). The experiment is described as follows: microbe, parasite or virus in culture. Conditions: H2N2, MDCK, 72 h, read-out: I50 Plaque Assay (μg/ml) Flu A. The format is cell-based.
In experiment [4] the target is N2 influenza neuraminidase (Influenza A virus (A/Aichi/2/1968(H3N2)), UniProt Q75VQ4). Conditions: read-out: NA1 (μg/ml), virion X31, MUN substrate, pH 6.5, 15 minutes at 37° C.
Chain of N2 influenza neuraminidase (Influenza A virus (A/Aichi/2/1968(H3N2)), UniProt Q75VQ4) (Q75VQ4 whole entry, looked up): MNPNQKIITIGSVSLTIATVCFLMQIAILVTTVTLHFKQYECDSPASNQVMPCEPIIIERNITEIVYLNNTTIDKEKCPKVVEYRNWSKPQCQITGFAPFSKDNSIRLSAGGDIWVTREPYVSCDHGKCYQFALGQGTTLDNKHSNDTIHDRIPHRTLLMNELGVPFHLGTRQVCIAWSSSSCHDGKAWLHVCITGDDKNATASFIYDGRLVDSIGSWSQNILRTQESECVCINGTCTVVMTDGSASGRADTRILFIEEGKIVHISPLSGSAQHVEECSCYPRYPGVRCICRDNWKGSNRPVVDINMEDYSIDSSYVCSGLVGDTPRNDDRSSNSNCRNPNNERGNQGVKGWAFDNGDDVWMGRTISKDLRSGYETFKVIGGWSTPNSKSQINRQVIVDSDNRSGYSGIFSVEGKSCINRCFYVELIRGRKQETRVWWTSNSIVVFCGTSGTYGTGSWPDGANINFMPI
For experiment [5], the system named is influenza and parainfluenza viruses. Conditions: Palese et al., Virology 1974; cited from earlier work.
The conditions of experiment [6]: prior art; cited from earlier work.

Each structure is given as a SMILES string. Values after ≈ are worked out from the molar mass of the structure shown.

As for `CC(=O)N[C@H]1[C@H]([C@H](O)[C@H](O)CO)OC(C(=O)O)C[C@@H]1O` (some centres unmarked) [2-deoxy-N-acetylneuraminic acid], the “inhibition of Vibrio cholerae neuraminidase” value in experiment [1] is reported as “did not inhibit”.

Turning to `CC(=O)N[C@H]1[C@H]([C@H](O)[C@H](O)CO)OC(C(=O)O)=C[C@@H]1NC(=N)NN` [Example 1, 5-(Acetylamino)-4-[[amino(aminoimino)methyl]amino]-2,6-anhydro-3,4,5-trideoxy-D-glycero-D-galacto-non-2-enonic acid], the IC50 was 3 µg/mL (≈ 8.64 µM) in experiment [2], 2.9 µg/mL (≈ 8.35 µM) in experiment [3] and 3.74 µM in experiment [4].

On to `CC(=O)N[C@H]1[C@H]([C@H](O)[C@H](O)CO)OC(C(=O)O)=C[C@@H]1NC(=N)NO` [Example 2, 5-(Acetylamino)-4-[[amino(hydroxyimino)methyl]amino]-2,6-anhydro-3,4,5-trideoxy-D-glycero-D-galacto-non-2-enonic acid], for which the figures for the IC50 in experiment [2], in experiment [3] and in experiment [4] were below 0.1 µg/mL, 0.1 µg/mL (≈ 0.287 µM) and 1.72 µM, respectively.

`CC(=O)N[C@H]1[C@H]([C@H](O)[C@H](O)CO)OC(C(=O)O)=C[C@@H]1NC(N)=N[N+](=O)[O-]` [Example 4, 5-(Acetylamino)-4-[[amino(nitroimino)methyl]amino]-2,6-anhydro-3,4,5-trideoxy-D-glycero-D-galacto-2-enonic acid]: the IC50 in experiment [2] stood at 24 µg/mL (≈ 63.6 µM).

Consider `CCOC(=O)N=C(N)N[C@H]1C=C(C(=O)O)O[C@@H]([C@H](O)[C@H](O)CO)[C@@H]1NC(C)=O` [Example 5], for which the IC50 in experiment [2] stood at 0.6 µg/mL (≈ 1.48 µM).

For the molecule `O=C(O)C1=CC(O)C(NC(=O)C(F)(F)F)C(C(O)C(O)CO)O1` (centres unmarked) [FANA, 2-deoxy-2,3-dehydro-N-trifluoroacetyl-neuraminic acid], the “inhibition of multi-cycle replication of influenza and parainfluenza viruses in vitro” value in experiment [5] is “inhibits multi-cycle replication”. The “antiviral activity in vivo” value in experiment [6] was “inactive in vivo”.
